According to patent publication US6531598B1, “Naphthostyrils” (Hoffmann-La Roche Inc., priority 2001, dated 2003):

Tests used:
human Cyclin E/CDK2 = target: T1, human Cyclin E/CDK2 (Homo sapiens, UniProt P24941); experiment: CDK2 FlashPlate Assay; type: biochemical; conditions: inhibition of Rb phosphorylation, 33P-ATP, 25 minutes at room temperature
T1 construct: made in house; host or cells: insect cells
Experimental: To determine inhibition of CDK2 activity, purified recombinant retinoblastoma (Rb) protein was coated on 96 well FlashPlates (New England Nuclear, Boston, Mass.). […] Recombinant active human Cyclin E/CDK2 complexes were partially purified from extracts of insect cells. […] Plates were incubated for 25 minutes at room temperature with shaking, then washed and counted in the Topcount scintillation counter (Packard Instrument Co., Downers Grove, Ill.). Dilutions of test compounds were tested in duplicate in each assay. The percent inhibition of Rb phosphorylation, which is a measure of the inhibition of CDK2 activity, was determined according to the following formula: [formula]
where “test compound” refers to the average counts per minute of the test duplicates, “nonspecific” refers to the average counts per minute when no Cyclin E/CDK2 was added, and “total” refers to the average counts per minute when no compound was added.

[1] = tested on: MDA-MB435 breast carcinoma cell line; experiment: Tetrazolium dye proliferation assay, MDA-MB435; type: cell-based; conditions: Homo sapiens, MDA-MB-435, 120 h; MTT, 5 days post addition of test compound, 2000 cells per well
Experimental: (§1) The cell lines used were MDA-MB435, a breast carcinoma dell line and RKO, a colon carcinoma cell line.
(§2) Teh estrogen receptor negative epithelial breast carcinoma line (MDA-MB435) was purchased from American Type Cell Culture Collection (ATCC; Rockville, Md.) and was grown in the medium recommended by ATCC. For analysis of the test compounds on growth of these cells, the cells were plated at 2000 cells per well in a 96-well tissue culture plate, and were incubated overnight at 37° C. with 5% CO2. The next day, the test compounds were dissolved in 100% dimethyl sulfoxide (DMSO) to yield a 10 mM stock solution. […] The compounds were then serially diluted in medium with 1.2% DMSO. One-fourth final volume of the diluted compounds was transferred to 96 well plates. Test compounds were assayed in duplicate. DMSO was added to a row of “control cells” such that the final concentration of DMSO in each well was 0.3%. Wells to which no cells were added served as the “blank.” Wells to which no inhibitor was added served as “no inhibitor control”. The plates were returned to the incubator, and 5 days post addition of test compound, were analyzed as described below.
(§3) 3-(4,5-Dimethylthiazole-2-yl)-2,5-diphenyl-2H-tetrazolium bromide (thiazolyl blue; MTT) was added to each well to yield a final concentration of 1 mglmL. The plates were then incubated at 37° C. for 3 hours. The plates were centrifuged at 1000 rpm for 5 minutes prior to aspiration of the MTT-containing medium. The MTT-containing medium was then removed and 100 μL 100% EtOH was added to each well to dissolve the resulting formazan metabolite. To ensure complete dissolution, plates were shaken for 15 minutes at room temperature. Absorbencies were read in a microliter plate reader (Molecular Dynamics) at a wavelength of 570 nm with a 650 nm reference. Percent inhibition was calculated by subtracting the absorbency of the blank (no cell) wells from all wells, then subtracting the division of the average absorbency of each test duplicate by the average of the controls from 1.00. Inhibitory concentrations (IC50) were determined from the linear regression of a plot of the logarithm of the concentration versus the percent inhibition.

[2] = tested on: RKO colon carcinoma cell line; experiment: Tetrazolium dye proliferation assay, RKO; type: cell-based; conditions: Colon carcinoma cell, 120 h; MTT, 5 days post addition of test compound, 500 cell per well
Experimental: as §1, §2, §3
The colon carcinoma line RKO was also obtained from the ATCC and was tested according to the same protocol provided above except that the cell line RKO was plated at 500 cell per well.

IC50 (human Cyclin E/CDK2): ≤ 10 µM
IC50 [1]: ≤ 10 µM
IC50 [2]: ≤ 10 µM
Compound: COc1cc(-c2ccc[nH]2)c2c3c(ccc(F)c13)NC2=O [Example 13, 6-Fluoro-5-methoxy-3-(1H-pyrrol-2-yl)-1H-benzo[cd]indol-2-one]
